From patent publication US6884907B2, “Hydroxamic acids and acyl hydroxamines as naaladase inhibitors” (Guilford Pharmaceuticals Inc., priority 2001, dated 2005)

How the values were obtained:
[1] = biological target: T1, NAALADase (Homo sapiens, UniProt Q04609); experiment: In vitro inhibition of NAALADase activity; type: biochemical; settings: average IC50 values
T1 construct: from tissue; host or cells: unspecified tissue
Protocol: Various compounds of the invention were tested for in vitro inhibition of NAALADase activity. The average IC50 values of the tested compounds are provided bewlow in Table II.
Protocol for Assaying In Vitro Inhibition of NAALADase Activity
The following were combined in assay tubes: 100 μL of 10 mM CoCl2, 250 μL of 200 mM Tris chloride, 100 μL tissue, 100 μL of 10 mM NAALADase inhibitor in Bakers H2O, and Bakers H2O to make a total volume of 950 μL. Each assay tube was then incubated for 10 minutes in a 37° C. water bath. 50 μL of 3-H-NAAG was then added to each assay tube and incubated for an additional 15 minutes in at 37° C. water bath. The assay was stopped by adding 1.0 ml of 0.1 M sodium phosphate.
Glutamate released by the action of the NAALADase enzyme was separated from the assay solution using an anion exchange resin. The resin was equilibrated to 25° C., 2.0 ml of the resin was added to a Pasteur pipette pre-loaded with a single glass bead, and each column was washed twice with distilled H2O. A column was placed over a scintillation vial and 200 μL of an assay sample was loaded onto the column. After draining, glutamate was eluted using two 1.0 ml washes of 1 M formic acid. After addition of 10 ml of scintillation cocktail, each sample was counted for 2 minutes on a scintillation counter.

[2] = tested on: STZ-induced diabetic rats; experiment: Neuropathic pain in STZ model (thermal nociception, Hargreaves apparatus); type: in vivo, Male Sprague-Dawley rats; settings: 10 mg/kg i.p. daily, treatment started 45 days post-STZ, FIGS. 7A and 7B
Protocol: Male Sprague-Dawley rats (200-225 g) were rendered diabetic by intravenous administration of streptozotocin (“STZ”, 70 mg/kg in phosphate buffered saline). Diabetic animals were divided into five groups: one group receiving Compound A (10 mg/kg or 1 mg/kg), Compound D (10 mg/kg or 1 mg/kg) or vehicle. Another group of animals (non-STZ treated) served as non-diabetic controls. Drug/vehicle treatment was started in diabetic animals 45 days post-STZ administration. STZ-induced diabetic rats were tested for sensitivity to a heat source as soon as blood glucose levels rose to 320 mg/dl or above (30 days post STZ). The rats were then acclimated to a Hargreaves apparatus and thermal nociception was monitored using an infrared heat source directed into the dorsal surface of the hindpaw, and the time taken for the animal to remove its paw noted to the nearest 0.1 seconds (see Hargreaves et al., supra, for detailed experimental method). The intensity of the beam source was adjusted such that the mean latency for control animals (non-STZ treated) was approximately 10 seconds. Each animal was tested 8 times and the mean difference score (between mean non-diabetic control latency and mean diabetic latency) are graphically presented in FIGS. 7A and 7B.

[3] = tested on: BB/W diabetic rats; experiment: Progression of neuropathic pain and nerve conduction deficits in BB/W model; type: in vivo, Male BB/W rats
Description: Male BB/W rats (BRI, Mass) spontaneously develop a cell mediated autoimmune destruction of pancreatic B cells, resulting in onset of insulin-dependent (Type I) diabetes (Guberski 1994). […] This renders them valuable for experimental trials of new compounds for future treatments of this major disorder. In the present study, Compound D and Compound A were examined for their ability to alter the progression of diabetic neuropathy. The rats received daily injection of Compound D or Compound A (10 mg/kg i.p.) or vehicle, starting at the onset of diabetes (hyperglycemia) and up to 6 months thereafter. Another group of non-diabetic rats also receiving vehicle were tested. All animals were continuously monitored for body weight, urine volume, blood sugar and glycated haemoglobin. In the first month of the study, all animals were tested for thermal nociception in a Hargreaves apparatus, weekly. After the first month this was done biweekly and then monthly. The testing consists of directing an infrared heat source onto the dorsal surface of the rat hindpaw and noting the time taken for the animal to remove its paw (see Hargreaves et al., supra, for a description of the experimental method). Each animal was tested 8 times and the mean withdrawal latency noted.
Nerve conduction velocity was also measured every two weeks through the first eight weeks of treatment and every month thereafter through to the six months of treatment (see De Koning et al., Peptides, Vol. 8, No. 3, pp. 415-22 (1987) for a description of the experimental method). […] This was apparent starting at 8 weeks of treatment and persisted to a similar degree through to the six month termination point of the study.

[4] = tested on: STZ-diabetic animals; experiment: Diabetic neuropathy in STZ model (nerve conduction velocity); type: in vivo, rats; settings: either dose (1 or 10 mg/kg), versus diabetic controls, FIGS. 10A and 10B
Protocol: Motor and sensory nerve conduction velocity was also measured in STZ-diabetic animals after 4, 8 and 12 weeks of treatment (see De Koning et al., supra, for a description of the experimental method). Briefly, stimulating needle electrodes were inserted close to the sciatic and tibial nerves with recording electrodes being placed subcutaneously over the distal foot muscles, in anesthetized rats.

[5] = tested on: STZ-diabetic rats; experiment: Reversal of diabetic neuropathy in STZ model, delayed dosing: thermal hyperalgesia; type: in vivo; settings: for neuropathic hyperalgesia (withdrawal latency): daily p.o., treatment started 5 weeks post STZ, within two weeks of treatment, FIG. 20
Protocol: (§1) Rats (200-225 grams) were injected with STZ (70 mg/kg) into the tail vein. Diabetes (>350 mg/dl) was confirmed in all rats, 4 weeks after STZ administration. Rats were left untreated until 35-49 days after STZ. Compound D (1, 3, or 10 mg/kg), Compound E (10 mg/kg), or vehicle were dosed daily p.o. following confirmation of hyperalgesia and/or nerve conduction velocity deficits. In separate experiments, onset of treatment was delayed until 60 to 90 days after STZ administration. Nerve conduction velocity or withdrawal response to thermal stimulation of hind paws was measured at intervals, usually bi-weekly for thermal response and monthly for nerve conduction velocity.
Animals were acclimated to the apparatus for at least 5 min. An infrared source was placed under below the plantar surface of the rat hind-paw. The intensity of the source was adjusted so that latency for normal rats was about 10 secs. Animals were tested for thermal response latency according to the method of Hargreaves et al (Pain 77-88, 1988). Each animal was tested 8 times (4 each hind limb) and the latency of response recorded automatically to nearest 0.1 sec. An average of the last 4 measurements for each paw was calculated (8 total measurements) and noted for each rat.

[6] = tested on: STZ-diabetic rats; experiment: Reversal of diabetic neuropathy in STZ model, delayed dosing: nerve conduction velocity; type: in vivo; settings: for motor nerve conduction velocity: daily p.o., within 8 weeks of dosing, persisted through 12 weeks, FIG. 21
Protocol: as §1
Sensory and motor nerve conduction velocities were evaluated using the method of De Koning and Gispen (Peptides 8: 415-422, 1987). Electrophysiological evaluation was carried out within one hour of dosing. Animals were anesthetized with isoflurane and stimulating needle electrodes were inserted close to the sciatic nerve at the sciatic notch and the tibial nerve near the ankle. Recording electrodes were placed over the foot muscles. Stimuli were applied and responses recorded. Motor and sensory nerve conduction velocities were calculated by measuring the distance between the sciatic notch and ankle sites, and the latency between the M-wave and the H-reflex.

T1 sequence (Q04609 whole entry): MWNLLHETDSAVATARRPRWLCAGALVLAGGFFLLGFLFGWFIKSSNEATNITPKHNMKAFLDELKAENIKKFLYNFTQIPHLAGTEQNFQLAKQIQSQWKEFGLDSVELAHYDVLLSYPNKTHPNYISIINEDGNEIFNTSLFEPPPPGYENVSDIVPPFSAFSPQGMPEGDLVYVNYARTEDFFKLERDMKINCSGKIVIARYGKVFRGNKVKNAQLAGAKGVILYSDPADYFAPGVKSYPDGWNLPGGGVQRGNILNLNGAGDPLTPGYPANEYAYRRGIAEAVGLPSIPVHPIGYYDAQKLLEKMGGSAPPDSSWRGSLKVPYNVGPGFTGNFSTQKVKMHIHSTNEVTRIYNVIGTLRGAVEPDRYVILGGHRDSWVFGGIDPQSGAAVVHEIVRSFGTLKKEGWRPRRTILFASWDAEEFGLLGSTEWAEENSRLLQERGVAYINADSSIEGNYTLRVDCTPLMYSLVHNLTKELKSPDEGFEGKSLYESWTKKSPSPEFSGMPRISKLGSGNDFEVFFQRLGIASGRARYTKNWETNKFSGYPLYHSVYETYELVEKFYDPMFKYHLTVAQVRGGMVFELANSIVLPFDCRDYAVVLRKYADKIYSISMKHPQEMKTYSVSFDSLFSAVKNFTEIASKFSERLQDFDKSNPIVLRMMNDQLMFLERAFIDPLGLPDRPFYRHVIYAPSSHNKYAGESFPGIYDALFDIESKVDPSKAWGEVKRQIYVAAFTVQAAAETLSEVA

Row | Structure (SMILES) | IC50 [1] | further results
1 | O=CN(O)CCC(Oc1cccc(C(=O)O)c1)C(=O)O (stereo not drawn) [Compound 79] | 65.5 µM | –
2 | O=CN(O)CCC(Cc1cccc(C(=O)O)c1)C(=O)O (stereo not drawn) [Compound 78] | 10.3 µM | –
3 | O=CN(O)CCCCC(Cc1cccc(C(=O)O)c1)C(=O)O (stereo not drawn) [Compound 76] | 100 µM | –
4 | COC(=O)c1cccc(CC(C(=O)O)C(=O)NO)c1 (stereo not drawn) [Compound 10, 3-(2-Carboxy-2-hydroxycarbamoyl-ethyl)-benzoic acid methyl ester] | 100 µM | –
5 | O=C(O)CCC(Cc1cccc(C(=O)NO)c1)C(=O)O (stereo not drawn) [Compound 94] | 40 µM | –
6 | O=C(O)CCC(=O)NO [Compound 84] | 40 µM | –
7 | O=C(Cc1ccc(CC(Cc2cccc(C(=O)O)c2)C(=O)O)cc1)NO (stereo not drawn) [Compound 90] | 25.8 µM | –
8 | O=C(O)CCC(CCS)C(=O)O (stereo not drawn) [Compound D, 2-(2-sulfanylethyl)pentanedioic acid] | – | hyperalgesic response (withdrawal latency difference score) [2]: completely reversed; nerve conduction velocity ([3]; 10 mg/kg daily, versus diabetic vehicle controls, from 8 weeks to six months, FIG. 12): significantly less severe nerve conduction deficits; withdrawal latency ([3]; 10 mg/kg i.p. daily, versus diabetic vehicle-treated rats, from 4 weeks through six months of treatment, FIG. 11): longer withdrawal latencies; motor and sensory nerve conduction velocities [4]: increased both motor and sensory nerve conduction velocities; neuropathic hyperalgesia (withdrawal latency) [5]: reversed towards normal; neuropathic pain abnormalities ([5]; lower doses 1 and 3 mg/kg, treatment initiated 7 weeks after STZ, FIG. 23): Significant reduction in pain abnormalities; motor nerve conduction velocity [6]: reversed the motor nerve conduction velocity towards normal; motor nerve conduction ([6]; lower doses 1 and 3 mg/kg, treatment from 7 weeks post STZ, 8 weeks after dosing): remained unimproved; sensory nerve conduction ([6]; lower doses 1 and 3 mg/kg, treatment from 7 weeks post STZ, within 4 weeks of treatment): significantly improved towards normal; sensory and motor nerve conduction velocity deficits ([6]; untreated until 60 days after STZ, external CRO, FIGS. 26 and 27): Partial reversal of both deficits
9 | O=C(O)CNC(=O)c1cc(C(=O)O)cc(C(=O)NO)c1 [Compound 81] | 9 µM | –
10 | O=C(O)c1cccc(CC(CCCS)C(=O)O)c1 (stereo not drawn) [Compound E, 3-carboxy-alpha-(3-mercaptopropyl)benzenepropanoic acid] | – | neuropathic hyperalgesia (withdrawal latency) [5]: reversed towards normal; motor nerve conduction velocity [6]: reversed the motor nerve conduction velocity towards normal

Continued by falling IC50 [1], values first:

Row | IC50 [1] | Structure (SMILES) | further results
11 | 4 µM | O=C(O)CCC(C(=O)O)C(=O)NO (stereo not drawn) [Compound 86] | –
12 | 4 µM | CCC(SCCCC(Cc1cccc(C(=O)O)c1)C(=O)O)C(=O)NO (stereo not drawn) [Compound 19, 3-[2-Carboxy-5-(1-hydroxycarbamoyl-propylsulfanyl)-pentyl]-benzoic acid] | –
13 | 3 µM | CS(=O)(=O)c1ccc(CC(CCC(=O)NO)C(=O)O)cc1 (stereo not drawn) [Compound 74] | –
14 | 3 µM | O=C(CSCCCC(Cc1ccc(C(=O)O)c(Br)c1)C(=O)O)NO (stereo not drawn) [Compound 65, 2-Bromo-4-(2-carboxy-5-hydroxycarbamoylmethyl-sulfanylpentyl)-benzoic acid] | –
15 | 2.22 µM | O=CN(O)CCCC(Cc1cccc(C(=O)O)c1)C(=O)O (stereo not drawn) [Compound 77] | –
16 | 2 µM | O=C(CCC(Cc1ccccc1C(=O)O)C(=O)O)NO (stereo not drawn) [Compound 73] | –
17 | 2 µM | O=C(O)CCC(CCC(=O)NO)C(=O)O (stereo not drawn) [Compound 83] | –
18 | 0.9 µM | O=C(O)CCC(CCCC(=O)NO)C(=O)O (stereo not drawn) [Compound 85] | –
19 | 0.5 µM | CC(C)(C)c1cc(CC(CCCC(=O)NO)C(=O)O)cc(C(=O)O)c1 (stereo not drawn) [Compound 71] | –
20 | 0.4 µM | O=C(CSCCCC(Cc1cccc(C(=O)O)c1)C(=O)O)NO (stereo not drawn) [Compound 17, 3-(2-Carboxy-5-hydroxycarbamoylmethyl-sulfanylpentyl)-benzoic acid] | –
21 | 0.06 µM | CC(C)(C)c1cc(CC(CCC(=O)NO)C(=O)O)cc(C(=O)O)c1 (stereo not drawn) [Compound 2, 3-tert-Butyl-5-(2-carboxy-4-hydroxycarbamoyl-butyl)-benzoic acid] | –
22 | 0.05 µM | O=C(CCC(Cc1cccc(-c2cccc(C(=O)O)c2)c1)C(=O)O)NO (stereo not drawn) [Compound 72] | –
23 | 0.03 µM | O=C(CCC(Cc1ccc(C(=O)O)cc1)C(=O)O)NO (stereo not drawn) [Compound 75, 4-[2-carboxy-5-(hydroxyamino)-5-oxopentyl]benzoic acid] | –
